≈ marks a conversion by molar mass, not a printed value.
System: HIV-1 (RF)
Test: HIV RNA assay: microplate based compound evaluation in HIV-1 infected MT-2 cells
Type: cell-based
Details: Human immunodeficiency virus 1, MT2, 72 h; HIV-1 (RF) infected MT-2 cells, 3 days of culture; virus dilutions were selected to give this value (standardisation of inoculum); read-out: IC90 value (concentration of compound required to reduce the HIV RNA level by 90%)
Description: MT-2, CEM, and H9 cells were maintained in RPMI 1640 supplemented with 5% fetal calf serum (FCS), 2 mM L-glutamine and 50 μg/mL gentamycin, all from Gibco. Laboratory strains of HIV-1 (RF, MN and IIIB) were propagated in H9 cells in the same medium. Virus stocks were prepared approximately 1 month after acute infection of H9 cells by clarification of the tissue culture medium and storage of aliquots at -70° C. Infectious titers of HIV-1 (RF) stocks were 1-3×10^7 PFU (plaque forming units)/mL as measured by plaque assay on MT-2 cells (see below). Each aliquot of virus stock used for infection was thawed only once. […]
Cell lysates or purified RNA in 3M or 5M GED were mixed with 5M GED and capture probe to a final guanidinium isothiocyanate concentration of 3M and a final biotin oligonucleotide concentration of 30 nM. […] Immobilized alkaline phosphatase activity was detected by addition of 100 μL of 0.2 mM 4-methylumbelliferyl phosphate (MUBP, JBL Scientific) in buffer δ(2.5M diethanolamine pH 8.9 (JBL Scientific), 10 mM MgCl2, 5 mM zinc acetate dihydrate and 5 mM N-hydroxyethyl-ethylene-diamine-triacetic acid). […] Fluorescence at […] was measured using a microplate fluorometer (Dynateck) exciting at 365 nm.
Compounds to be evaluated were dissolved in DMSO and diluted in culture medium to twice the highest concentration to be tested and a maximum DMSO concentration of 2%. […]

IC90: 0.2 µg/mL (≈ 0.947 µM)
SMILES: Nc1ccn([C@H]2CC[C@@H](CO)O2)c(=O)n1 [ddC, dideoxycytidine]
